# From patent US6399542B1, “Alkoxyimino-substituted bicyclic compounds compositions containing the same and method of making such compounds” (Agro-Kanesho Co., Ltd., priority 1997, dated 2002)
# Tested on: Botrytis cinerea
# Test: Effect on Cucumber gray mold (cotyledon paper disc test)
# Type: in vivo
# Conditions: conc. of active ingredient 20 ppm, 3 days after inoculation
row,SMILES,Preventive rate (%)
1,COC=C(C(=O)OC)c1ccccc1COc1ccc2c(c1C)OCC2=NOC [a-13],96
2,C=CCON=C1COc2c1ccc(OCc1ccccc1/C(=N\OC)C(=O)OC)c2C [a-59],73
3,CO/N=C(/C(=O)OC)c1ccccc1COc1ccc2c(c1C)OCC2=NOC/C=C/Cl [a-61],91
4,CNC(=O)/C(=N/OC)c1ccccc1COc1ccc2c(c1C)OCC2=NOC/C=C/Cl [a-62],96
5,C#CCON=C1COc2c1ccc(OCc1ccccc1/C(=N\OC)C(=O)OC)c2C [a-70],53
6,CNC(=O)C(=NOC)c1ccccc1COc1cc(C)c2c(c1C)CCC2=NOC [e-23],86

# Same assay, conditions: conc. of active ingredient 100 ppm, 3 days after inoculation
row,SMILES,Preventive rate (%)
1,COC=C(C(=O)OC)c1ccccc1COc1ccc2c(c1C)OCC2=NOC [a-13],100
2,C=CCON=C1COc2c1ccc(OCc1ccccc1/C(=N\OC)C(=O)OC)c2C [a-59],76
3,CO/N=C(/C(=O)OC)c1ccccc1COc1ccc2c(c1C)OCC2=NOC/C=C/Cl [a-61],85
4,CNC(=O)/C(=N/OC)c1ccccc1COc1ccc2c(c1C)OCC2=NOC/C=C/Cl [a-62],100
5,C#CCON=C1COc2c1ccc(OCc1ccccc1/C(=N\OC)C(=O)OC)c2C [a-70],85
6,CNC(=O)C(=NOC)c1ccccc1COc1cc(C)c2c(c1C)CCC2=NOC [e-23],96

# Tested on: Puccinia recondite
# Test: Penetration and translocation in wheat leaves (covered leaf tip, brown rust)
# Type: in vivo
# Conditions: conc. of active ingredient 100 ppm
SMILES,Number of lesions formed within the mark to the tip,Preventive rate (%),Rate of the translocation perfect preventive conc. (%)
CON=C(C(=O)OC)c1ccccc1COc1ccc2c(c1C)OC(C)CC2=NOC (racemic) [d-10],0,100,100
CNC(=O)C(=NOC)c1ccccc1COc1ccc2c(c1C)CCC2=NOC [e-16],0,100,100

# Tested on: Erysiphe graminis
# Test: Effects on Barley powdery mildew (preventive spray test)
# Type: in vivo
# Conditions: conc. of active ingredient 4 ppm, lesions counted seven days after inoculation
row,SMILES,Preventive rate (%)
1,COC=C(C(=O)OC)c1ccccc1COc1ccc2c(c1C)OCC2=NOC [a-13],100
2,CO/N=C(/C(=O)OC)c1ccccc1COc1ccc2c(c1C)OCC2=NOC/C=C/Cl [a-61],99
3,CNC(=O)/C(=N/OC)c1ccccc1COc1ccc2c(c1C)OCC2=NOC/C=C/Cl [a-62],98
4,CNC(=O)C(=NOC)c1ccccc1COc1ccc2c(c1C)CCC2=NOC [e-16],100
5,CNC(=O)C(=NOC)c1ccccc1COc1cc(C)c2c(c1C)CCC2=NOC [e-23],100

# Same assay, conditions: conc. of active ingredient 20 ppm, lesions counted seven days after inoculation
row,SMILES,Preventive rate (%)
1,COC=C(C(=O)OC)c1ccccc1COc1ccc2c(c1C)OCC2=NOC [a-13],100
2,C=CCON=C1COc2c1ccc(OCc1ccccc1/C(=N\OC)C(=O)OC)c2C [a-59],92
3,CO/N=C(/C(=O)OC)c1ccccc1COc1ccc2c(c1C)OCC2=NOC/C=C/Cl [a-61],100
4,CNC(=O)/C(=N/OC)c1ccccc1COc1ccc2c(c1C)OCC2=NOC/C=C/Cl [a-62],100
5,C#CCON=C1COc2c1ccc(OCc1ccccc1/C(=N\OC)C(=O)OC)c2C [a-70],100
6,CNC(=O)C(=NOC)c1ccccc1COc1ccc2c(c1C)CCC2=NOC [e-16],100
7,CNC(=O)C(=NOC)c1ccccc1COc1cc(C)c2c(c1C)CCC2=NOC [e-23],100

# Same assay, conditions: conc. of active ingredient 100 ppm, lesions counted seven days after inoculation
row,SMILES,Preventive rate (%)
1,COC=C(C(=O)OC)c1ccccc1COc1ccc2c(c1C)OCC2=NOC [a-13],100
2,C=CCON=C1COc2c1ccc(OCc1ccccc1/C(=N\OC)C(=O)OC)c2C [a-59],100
3,CO/N=C(/C(=O)OC)c1ccccc1COc1ccc2c(c1C)OCC2=NOC/C=C/Cl [a-61],100
4,CNC(=O)/C(=N/OC)c1ccccc1COc1ccc2c(c1C)OCC2=NOC/C=C/Cl [a-62],100
5,C#CCON=C1COc2c1ccc(OCc1ccccc1/C(=N\OC)C(=O)OC)c2C [a-70],100
6,CNC(=O)C(=NOC)c1ccccc1COc1ccc2c(c1C)CCC2=NOC [e-16],100
7,CNC(=O)C(=NOC)c1ccccc1COc1cc(C)c2c(c1C)CCC2=NOC [e-23],100

# Tested on: Puccinia recondita
# Test: Effect on Wheat brown rust (preventive spray test)
# Type: in vivo
# Conditions: conc. of active ingredient 4 ppm, 7 days after inoculation
row,SMILES,Preventive rate (%)
1,C=CCON=C1COc2c1ccc(OCc1ccccc1/C(=N\OC)C(=O)OC)c2C [a-59],90
2,CO/N=C(/C(=O)OC)c1ccccc1COc1ccc2c(c1C)OCC2=NOC/C=C/Cl [a-61],91
3,CNC(=O)/C(=N/OC)c1ccccc1COc1ccc2c(c1C)OCC2=NOC/C=C/Cl [a-62],100
4,C#CCON=C1COc2c1ccc(OCc1ccccc1/C(=N\OC)C(=O)OC)c2C [a-70],99

# Same assay, conditions: conc. of active ingredient 20 ppm, 7 days after inoculation
row,SMILES,Preventive rate (%)
1,C=CCON=C1COc2c1ccc(OCc1ccccc1/C(=N\OC)C(=O)OC)c2C [a-59],98
2,CO/N=C(/C(=O)OC)c1ccccc1COc1ccc2c(c1C)OCC2=NOC/C=C/Cl [a-61],100
3,CNC(=O)/C(=N/OC)c1ccccc1COc1ccc2c(c1C)OCC2=NOC/C=C/Cl [a-62],100
4,C#CCON=C1COc2c1ccc(OCc1ccccc1/C(=N\OC)C(=O)OC)c2C [a-70],100
5,CNC(=O)C(=NOC)c1ccccc1COc1ccc2c(c1C)CCC2=NOC [e-16],100
6,CNC(=O)C(=NOC)c1ccccc1COc1cc(C)c2c(c1C)CCC2=NOC [e-23],100

# Same assay, conditions: conc. of active ingredient 100 ppm, 7 days after inoculation
row,SMILES,Preventive rate (%)
1,C=CCON=C1COc2c1ccc(OCc1ccccc1/C(=N\OC)C(=O)OC)c2C [a-59],100
2,CO/N=C(/C(=O)OC)c1ccccc1COc1ccc2c(c1C)OCC2=NOC/C=C/Cl [a-61],100
3,CNC(=O)/C(=N/OC)c1ccccc1COc1ccc2c(c1C)OCC2=NOC/C=C/Cl [a-62],100
4,C#CCON=C1COc2c1ccc(OCc1ccccc1/C(=N\OC)C(=O)OC)c2C [a-70],100
5,CNC(=O)C(=NOC)c1ccccc1COc1ccc2c(c1C)CCC2=NOC [e-16],100
6,CNC(=O)C(=NOC)c1ccccc1COc1cc(C)c2c(c1C)CCC2=NOC [e-23],100

# Tested on: Psecidoperonospora cubensis
# Test: Effect on Cucumber downy mildew (preventive spray test)
# Type: in vivo
# Conditions: conc. of active ingredient 4 ppm, 7 days after inoculation
row,SMILES,Preventive rate (%)
1,CNC(=O)/C(=N/OC)c1ccccc1COc1ccc2c(c1C)OCC2=NOC/C=C/Cl [a-62],94

# Same assay, conditions: conc. of active ingredient 20 ppm, 7 days after inoculation
row,SMILES,Preventive rate (%)
1,COC=C(C(=O)OC)c1ccccc1COc1ccc2c(c1C)OCC2=NOC [a-13],96
2,CNC(=O)/C(=N/OC)c1ccccc1COc1ccc2c(c1C)OCC2=NOC/C=C/Cl [a-62],100
3,C#CCON=C1COc2c1ccc(OCc1ccccc1/C(=N\OC)C(=O)OC)c2C [a-70],88
4,CNC(=O)C(=NOC)c1ccccc1COc1ccc2c(c1C)CCC2=NOC [e-16],100
5,CNC(=O)C(=NOC)c1ccccc1COc1cc(C)c2c(c1C)CCC2=NOC [e-23],96

# Same assay, conditions: conc. of active ingredient 100 ppm, 7 days after inoculation
row,SMILES,Preventive rate (%)
1,COC=C(C(=O)OC)c1ccccc1COc1ccc2c(c1C)OCC2=NOC [a-13],100
2,CNC(=O)/C(=N/OC)c1ccccc1COc1ccc2c(c1C)OCC2=NOC/C=C/Cl [a-62],100
3,C#CCON=C1COc2c1ccc(OCc1ccccc1/C(=N\OC)C(=O)OC)c2C [a-70],91
4,CNC(=O)C(=NOC)c1ccccc1COc1ccc2c(c1C)CCC2=NOC [e-16],100
5,CNC(=O)C(=NOC)c1ccccc1COc1cc(C)c2c(c1C)CCC2=NOC [e-23],100

# Tested on: Rhizoctonia solani
# Test: Effect on Rice sheath blight (preventive spray test)
# Conditions: conc. of active ingredient 20 ppm, 10 days after inoculation
row,SMILES,Preventive rate (%)
1,COC=C(C(=O)OC)c1ccccc1COc1ccc2c(c1C)OCC2=NOC [a-13],97
2,C=CCON=C1COc2c1ccc(OCc1ccccc1/C(=N\OC)C(=O)OC)c2C [a-59],60
3,CO/N=C(/C(=O)OC)c1ccccc1COc1ccc2c(c1C)OCC2=NOC/C=C/Cl [a-61],60
4,CNC(=O)/C(=N/OC)c1ccccc1COc1ccc2c(c1C)OCC2=NOC/C=C/Cl [a-62],91
5,C#CCON=C1COc2c1ccc(OCc1ccccc1/C(=N\OC)C(=O)OC)c2C [a-70],80
6,CNC(=O)C(=NOC)c1ccccc1COc1cc(C)c2c(c1C)CCC2=NOC [e-23],64

# Same assay, conditions: conc. of active ingredient 100 ppm, 10 days after inoculation
row,SMILES,Preventive rate (%)
1,COC=C(C(=O)OC)c1ccccc1COc1ccc2c(c1C)OCC2=NOC [a-13],97
2,C=CCON=C1COc2c1ccc(OCc1ccccc1/C(=N\OC)C(=O)OC)c2C [a-59],72
3,CO/N=C(/C(=O)OC)c1ccccc1COc1ccc2c(c1C)OCC2=NOC/C=C/Cl [a-61],96
4,CNC(=O)/C(=N/OC)c1ccccc1COc1ccc2c(c1C)OCC2=NOC/C=C/Cl [a-62],98
5,C#CCON=C1COc2c1ccc(OCc1ccccc1/C(=N\OC)C(=O)OC)c2C [a-70],90
6,CNC(=O)C(=NOC)c1ccccc1COc1cc(C)c2c(c1C)CCC2=NOC [e-23],69

# Tested on: Phytophthora infestans
# Test: not given
# Type: in vivo
# Conditions: Tomato late blight; conc. of active ingredient 20 ppm; 5 days after inoculation
row,SMILES,Preventive rate (%)
1,COC=C(C(=O)OC)c1ccccc1COc1ccc2c(c1C)OCC2=NOC [a-13],100
2,CO/N=C(/C(=O)OC)c1ccccc1COc1ccc2c(c1C)OCC2=NOC/C=C/Cl [a-61],89
3,CNC(=O)/C(=N/OC)c1ccccc1COc1ccc2c(c1C)OCC2=NOC/C=C/Cl [a-62],97
4,C#CCON=C1COc2c1ccc(OCc1ccccc1/C(=N\OC)C(=O)OC)c2C [a-70],95
5,CNC(=O)C(=NOC)c1ccccc1COc1ccc2c(c1C)CCC2=NOC [e-16],100
6,CNC(=O)C(=NOC)c1ccccc1COc1cc(C)c2c(c1C)CCC2=NOC [e-23],100

# Same assay, conditions: Tomato late blight; conc. of active ingredient 100 ppm; 5 days after inoculation
row,SMILES,Preventive rate (%)
1,COC=C(C(=O)OC)c1ccccc1COc1ccc2c(c1C)OCC2=NOC [a-13],100
2,CO/N=C(/C(=O)OC)c1ccccc1COc1ccc2c(c1C)OCC2=NOC/C=C/Cl [a-61],91
3,CNC(=O)/C(=N/OC)c1ccccc1COc1ccc2c(c1C)OCC2=NOC/C=C/Cl [a-62],98
4,C#CCON=C1COc2c1ccc(OCc1ccccc1/C(=N\OC)C(=O)OC)c2C [a-70],95
5,CNC(=O)C(=NOC)c1ccccc1COc1ccc2c(c1C)CCC2=NOC [e-16],100
6,CNC(=O)C(=NOC)c1ccccc1COc1cc(C)c2c(c1C)CCC2=NOC [e-23],100

# Tested on: Chochliobolus miyabeanus
# Test: Effect on Rice brown spot (preventive spray test)
# Type: in vivo
# Conditions: conc. of active ingredient 4 ppm, 7 days after inoculation
row,SMILES,Preventive rate (%)
1,CO/N=C(/C(=O)OC)c1ccccc1COc1ccc2c(c1C)OCC2=NOC/C=C/Cl [a-61],49

# Same assay, conditions: conc. of active ingredient 20 ppm, 7 days after inoculation
row,SMILES,Preventive rate (%)
1,COC=C(C(=O)OC)c1ccccc1COc1ccc2c(c1C)OCC2=NOC [a-13],88
2,CO/N=C(/C(=O)OC)c1ccccc1COc1ccc2c(c1C)OCC2=NOC/C=C/Cl [a-61],72
3,CNC(=O)/C(=N/OC)c1ccccc1COc1ccc2c(c1C)OCC2=NOC/C=C/Cl [a-62],83
4,CNC(=O)C(=NOC)c1ccccc1COc1cc(C)c2c(c1C)CCC2=NOC [e-23],98

# Same assay, conditions: conc. of active ingredient 100 ppm, 7 days after inoculation
row,SMILES,Preventive rate (%)
1,COC=C(C(=O)OC)c1ccccc1COc1ccc2c(c1C)OCC2=NOC [a-13],96
2,CO/N=C(/C(=O)OC)c1ccccc1COc1ccc2c(c1C)OCC2=NOC/C=C/Cl [a-61],91
3,CNC(=O)/C(=N/OC)c1ccccc1COc1ccc2c(c1C)OCC2=NOC/C=C/Cl [a-62],88
4,CNC(=O)C(=NOC)c1ccccc1COc1cc(C)c2c(c1C)CCC2=NOC [e-23],98
